Measured values taken from patent US12479850B2, “Compound having Axl and c-Met kinase inhibitory activity, preparation thereof and application thereof” (Shanghai Institute of Materia Medica, Chinese Academy of …, priority 2019, dated 2025).

Assays:
[1] = target: T1, Axl kinase domain recombinant protein (Homo sapiens, UniProt P30530); test: ELISA kinase activity assay, Axl
T1 sequence (P30530 536-807 limits assumed): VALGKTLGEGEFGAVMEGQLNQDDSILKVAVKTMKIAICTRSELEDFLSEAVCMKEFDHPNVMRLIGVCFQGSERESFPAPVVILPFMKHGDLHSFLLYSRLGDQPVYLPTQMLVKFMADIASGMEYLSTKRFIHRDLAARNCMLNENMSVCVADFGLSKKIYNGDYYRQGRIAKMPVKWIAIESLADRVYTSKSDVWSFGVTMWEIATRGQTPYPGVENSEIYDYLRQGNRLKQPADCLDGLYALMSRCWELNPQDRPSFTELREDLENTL

MKN45 cells = test: MKN45 cell proliferation assay (SRB); type: cell-based; conditions: Homo sapiens, MKN-45, 72 hours, read-out: IC50 value of MKN45 cell proliferation inhibition
Description: 2. MKN45 Cell Proliferation Effect Assay
MKN45 is a gastric cancer cell line. MET gene amplification leads to continuous activation of Met cell line, which is a c-Met-dependent tumor cell line.
The inhibitory effect of the compound on the proliferation of MKN45 cells was detected by sulforhodamine B (SRB) protein staining method. The specific steps were as follows: MKN45 cells in the logarithmic growth phase are inoculated into a 96-well culture plate at an appropriate density. After being cultured overnight, compounds of different concentrations were added for 72 hours. Three duplicate wells for each concentration, and a solvent control group (Negative control) were set. After the action was over, the culture solution was discarded, 10% (w/v) trichloroacetic acid (100 μL/well) was added, and fixed at 4° C. for 1 hour, then washed with distilled water for five times. After drying at room temperature, 100 μL of SRB solution was added to each well, incubated and dyed at room temperature for 15 min, washed off the unbound SRB with 1% glacial acetic acid. After drying at room temperature, 10 mM Tris solution was added to each well, and full wavelength microplate SpectraMax 190 was used to test OD value at the wavelength of 515 nm. […]

[2] = target: c-Met kinase domain recombinant protein (Homo sapiens, UniProt P08581); test: ELISA kinase activity assay, c-Met
Sequence of c-Met kinase domain recombinant protein (P08581 1078-1345 limits assumed): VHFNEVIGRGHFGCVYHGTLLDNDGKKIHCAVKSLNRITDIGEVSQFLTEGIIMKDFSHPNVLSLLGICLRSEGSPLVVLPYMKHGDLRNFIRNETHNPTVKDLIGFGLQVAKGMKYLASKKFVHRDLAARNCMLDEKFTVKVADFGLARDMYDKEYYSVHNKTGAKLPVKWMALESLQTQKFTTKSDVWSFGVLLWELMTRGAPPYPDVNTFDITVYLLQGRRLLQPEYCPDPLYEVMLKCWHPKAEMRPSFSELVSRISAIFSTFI

BaF3-TEL-AXL cells = test: BaF3-TEL-AXL cell proliferation assay (CCK-8); type: cell-based; conditions: 72 hours, read-out: IC50 value on BaF3-TEL-AXL cell proliferation inhibition
Description: 1. BaF3-TEL-AXL Cell Proliferation Effect Assay
TEL-AXL fusion protein in BaF3-TEL-AXL cells was expressed in the cytoplasm and was an Axl-dependent sensitive cell line.
The inhibitory effect of the compound on the proliferation of BaF3-TEL-AXL cells was detected by the CCK-8 Cell Counting Kit (Dojindo). The specific steps were as follows: the BaF3-TEL-AXL cells in the logarithmic growth phase were inoculated into the 96-well culture plate at a appropriate density, after being cultured overnight, different concentrations of compounds were added for 72 hours, and a solvent control group (negative control) was set. After the compound had acted on the cells for 72 hours, the effect of the compound on cell proliferation was detected by CCK-8 cell counting kit (Dojindo), 10 μL CCK-8 reagent was added to each well, placed in an incubator at 37° C. for 2-4 hours, and the full wavelength microplate reader SpectraMax 190 was used to read, and the measurement wavelength was 450 nm.
The inhibition rate of the compound on the growth of tumor cells was calculated by the following formula (%): Inhibition rate (%)=(OD of control well−OD of administration well)/OD of control well×100%

Row | IC50 [1] [nM] | IC50 (MKN45 cells) [nM] | IC50 [2] [nM] | IC50 (BaF3-TEL-AXL cells) [nM] | SMILES
1 | < 10 | < 100 | < 10 | < 10 | CC(C)n1cc(C(=O)Nc2ccc(Oc3ccnc4[nH]ccc34)c(F)c2)c(=O)n(-c2ccc(F)cc2)c1=O [No. 41, N-(4-((1H-pyrrolo[2,3-b]pyridin-4-yl)oxy)-3-fluorophenyl)-3-(4-fluorophenyl)-1-isopropyl-2,4-dioxo-1,2,3,4-tetrahydropyrimidin-5-carboxamide]
2 | < 10 | < 100 | 10 to 100 | < 10 | CC(C)n1cc(C(=O)Nc2ccc(Oc3cc4cnn(C)c4cc3-c3cn[nH]c3)c(F)c2)c(=O)n(-c2ccc(F)cc2)c1=O [No. 50, N-(3-fluoro-4-((1-methyl-6-(1H-pyrazol-4-yl)-1H-indazol-5-yl)oxy)phenyl)-3-(4-fluorophenyl)-1-isopropyl-2,4-dioxo-1,2,3,4-tetrahydropyrimidin-5-carboxamide]
3 | 10 to 100 | – | 10 to 100 | – | COCCCn1cc(C(=O)Nc2ccc(Oc3ccnc(-c4cnn(C)c4)c3)c(F)c2)c(=O)n(-c2ccc(F)cc2)c1=O [No. 55, N-(3-fluoro-4-((2-(1-methyl-1H-pyrazol-4-yl)pyridin-4-yl)oxy)phenyl)-3-(4-fluorophenyl)-1-(3-methoxypropyl)-2,4-dioxo-1,2,3,4-tetrahydropyrimidin-5-carboxamide]
